Patent US12214092B2, “Systems and methods for treating biological fluids” (Cerus Corporation, priority 2017, dated 2025)

Columns and labels:
E. coli [1] = test: Amotosalen and UV light (265-385 nm LEDs) treatment of E. coli in plasma, six-well plates, colony forming unit assay; type: cell-based
Text: This system comprised single arrays facing (e.g., opposing) a platform positioned for the illumination of biological fluids placed on the platform (see e.g., FIG. 5). System controls provided for adjustment of the LEDs during treatment of the biological fluid samples, controlling both the timing and intensity of illumination by the LEDs to achieve a desired light UV light dose. Evaluation of photochemical conversion, photoproduct formation, pathogen inactivation, and plasma and/or platelet quality parameters are performed for each light source wavelength as described previously. In one study using the device, photochemical inactivation of various bacteria were tested for each of the above-referenced LEDs together with amotosalen. The bacteria included E. coli (Gram negative), S. epidermidis (Gram positive), and P. acnes (anaerobe). As there are known germicidal effects of ultraviolet light with wavelengths in the UVC and UVB range, the study was controlled to determine for each LED wavelength the total inactivation levels, as well as inactivation levels specifically resulting from the UV light (without added amotosalen) or the photochemical treatment process itself.

[2] = S-59 photoconversion and photoproducts in platelets in 65% PAS III/35% plasma, 150 μM S-59, HPLC; conditions: for % Residual S-59: 3x (~10.8 J/cm^2)
Experimental: Platelets collected in PAS/Plasma (65% PAS III/35% Plasma) were pooled and split into three 285 mL units for the study. Amotosalen (S-59) was added to a concentration of 150 μM, and the units were illuminated one time (˜3.6 J/cm^2 total dose), two times (˜7.2 J/cm^2 total dose), or three times (˜10.8 J/cm^2 total dose) with the narrow band 340 nm LEDs or 365 nm LEDs using the device of Example 1, or with the INT-100 device. Efficiency of S-59 photoconversion, as well as photoproducts formation, was assessed post-UVA illumination by HPLC as in previous Examples.
HPLC analysis of post-illumination samples was used to determine area counts and relative levels for photoproducts generated from the various treatment conditions.

E. coli [3] = test: Photochemical inactivation of E. coli in human plasma with amotosalen and UVA, colony forming unit assay; type: cell-based; conditions: for E. coli Log Reduction: ~6.4 J/cm^2, n = 2
[4] = S-59 and photoproducts post-treatment in platelets in PAS/plasma, 150 μM amotosalen, liquid chromatography mass spectrometry; type: physicochemical
Text: As mass spec extinction coefficients for photoproducts were assumed identical as S-59 extinction coefficients, only relative difference in concentrations (μM) between samples are compared in the following Table 9b, rather than absolute concentrations.

[5] = 150 μM amotosalen, 385 nm, ~3 J/cm^2, plasma

Cc1oc2c(C)c3oc(=O)cc(C)c3cc2c1COCCN [S-59, 3-(2-aminoethoxymethyl)-2,5,9-trimethylfuro[3,2-g]chromen-7-one]
Log reduction total (E. coli [1]; 150 μM amotosalen, 365 nm, ~3 J/cm^2, plasma): 5.30 log | Log reduction from S-59 (E. coli [1]; [5]): 4.34 log | Log reduction total (E. coli [1]; [5]): 4.95 log | photochemical inactivation (E. coli [1]; summary for bacteria of Example 8, amotosalen+325 nm and amotosalen+340 nm illumination): greater than 4 logs | S-59 concentration post-illumination ([2]; 340 nm LED, ~3.6 J/cm^2): 9 µM | S-59 concentration post-illumination ([2]; 340 nm LED, ~7.2 J/cm^2): 2 µM | S-59 concentration post-illumination ([2]; 340 nm LED, ~10.8 J/cm^2, <LOQ): 0.98 µM | HPLC area counts ([2]; 340 nm, 0 J/cm^2): 1826 | % Residual S-59 ([2]; 340 nm): 0.5% | HPLC area counts ([2]; 340 nm, 3.6 J/cm^2): 106 | HPLC area counts ([2]; 340 nm, 7.2 J/cm^2): 24 | HPLC area counts ([2]; 340 nm, 10.8 J/cm^2): 11 | S-59 concentration post-illumination ([2]; 365 nm LED, ~3.6 J/cm^2): 42 µM | S-59 concentration post-illumination ([2]; 365 nm LED, ~7.2 J/cm^2): 15 µM | S-59 concentration post-illumination ([2]; 365 nm LED, ~10.8 J/cm^2): 7 µM | HPLC area counts ([2]; 365 nm, 0 J/cm^2): 1753 | % Residual S-59 ([2]; 365 nm): 4.9% | HPLC area counts ([2]; 365 nm, 3.6 J/cm^2): 514 | HPLC area counts ([2]; 365 nm, 7.2 J/cm^2): 183 | HPLC area counts ([2]; 365 nm, 10.8 J/cm^2): 84 | HPLC area counts ([2]; INT 100, 0 J/cm^2): 1753 | % Residual S-59 ([2]; INT 100): 3.1% | HPLC area counts ([2]; INT 100, 3.6 J/cm^2): 396 | HPLC area counts ([2]; INT 100, 7.2 J/cm^2): 129 | HPLC area counts ([2]; INT 100, 10.8 J/cm^2): 56 | S-59 concentration post-illumination ([2]; INT-100, ~3.6 J/cm^2): 32 µM | S-59 concentration post-illumination ([2]; INT-100, ~7.2 J/cm^2): 11 µM | S-59 concentration post-illumination ([2]; INT-100, ~10.8 J/cm^2): 5 µM | Log reduction (E. coli [3]; 340 nm, 1.5 μM, ~3 J/cm^2): 1.3 log | Post-UVA titer (E. coli [3]; 340 nm, 1.5 μM, ~3 J/cm^2): 5.0 log cfu/mL | Pre-UVA titer (E. coli [3]; 340 nm, 1.5 μM, ~3 J/cm^2): 6.3 log cfu/mL | Log reduction (E. coli [3]; 340 nm, 1.5 μM, ~6 J/cm^2): 1.5 log | Post-UVA titer (E. coli [3]; 340 nm, 1.5 μM, ~6 J/cm^2): 4.8 log cfu/mL | Pre-UVA titer (E. coli [3]; 340 nm, 1.5 μM, ~6 J/cm^2): 6.3 log cfu/mL | Log reduction (E. coli [3]; 340 nm, 1.5 μM, ~9 J/cm^2): 1.4 log | Post-UVA titer (E. coli [3]; 340 nm, 1.5 μM, ~9 J/cm^2): 4.9 log cfu/mL | Pre-UVA titer (E. coli [3]; 340 nm, 1.5 μM, ~9 J/cm^2): 6.3 log cfu/mL | Log reduction (E. coli [3]; 340 nm, 15 μM, ~3 J/cm^2): 4.7 log | Post-UVA titer (E. coli [3]; 340 nm, 15 μM, ~3 J/cm^2): 1.4 log cfu/mL | Pre-UVA titer (E. coli [3]; 340 nm, 15 μM, ~3 J/cm^2): 6.1 log cfu/mL | Log reduction (E. coli [3]; 340 nm, 15 μM, ~6 J/cm^2): 5.6 log | Post-UVA titer (E. coli [3]; 340 nm, 15 μM, ~6 J/cm^2): 0.5 log cfu/mL | Pre-UVA titer (E. coli [3]; 340 nm, 15 μM, ~6 J/cm^2): 6.1 log cfu/mL | Log reduction (E. coli [3]; 340 nm, 15 μM, ~9 J/cm^2): 5.6 log | Post-UVA titer (E. coli [3]; 340 nm, 15 μM, ~9 J/cm^2): 0.5 log cfu/mL | Pre-UVA titer (E. coli [3]; 340 nm, 15 μM, ~9 J/cm^2): 6.1 log cfu/mL | Log reduction (E. coli [3]; 340 nm, 150 μM, ~3 J/cm^2): >7.0 log | Post-UVA titer (E. coli [3]; 340 nm, 150 μM, ~3 J/cm^2): <−0.7 log cfu/mL | Pre-UVA titer (E. coli [3]; 340 nm, 150 μM, ~3 J/cm^2): 6.3 log cfu/mL | E. coli Log Reduction (E. coli [3]; 340 nm, 220 mL plasma, 15 μM): 6.0 log | E. coli Log Reduction (E. coli [3]; 340 nm, 350 mL plasma, 15 μM): 4.6 log | Log reduction (E. coli [3]; INT-100, 15 μM, ~3 J/cm^2): 4.2 log | Post-UVA titer (E. coli [3]; INT-100, 15 μM, ~3 J/cm^2): 2.0 log cfu/mL | Pre-UVA titer (E. coli [3]; INT-100, 15 μM, ~3 J/cm^2): 6.2 log cfu/mL | Log reduction (E. coli [3]; INT-100, 150 μM, ~3 J/cm^2): >7.1 log | Post-UVA titer (E. coli [3]; INT-100, 150 μM, ~3 J/cm^2): <−0.7 log cfu/mL | Pre-UVA titer (E. coli [3]; INT-100, 150 μM, ~3 J/cm^2): 6.4 log cfu/mL | E. coli Log Reduction (E. coli [3]; INT-100, 220 mL plasma, 15 μM): 5.3 log | E. coli Log Reduction (E. coli [3]; INT-100, 350 mL plasma, 15 μM): 4.4 log | Post-illumination concentration (relative, LC-MS) ([4]; 340 nm, ~3.6 J/cm^2): 21.3 µM | Post-illumination concentration (relative, LC-MS) ([4]; 340 nm, ~7.2 J/cm^2): 4.8 µM | Post-illumination concentration (relative, LC-MS) ([4]; 340 nm, ~10.8 J/cm^2): 2.5 µM | Post-illumination concentration (relative, LC-MS) ([4]; INT100, ~3.6 J/cm^2): 37.0 µM | Post-illumination concentration (relative, LC-MS) ([4]; INT100, ~7.2 J/cm^2): 11.6 µM | Post-illumination concentration (relative, LC-MS) ([4]; INT100, ~10.8 J/cm^2): 12.0 µM
